Test results published in patent US12128028B2, “Heterocyclic sulfonamide derivatives and pharmaceutical uses thereof” (METRION BIOSCIENCES LIMITED, priority 2018, dated 2024).

Molecular target: human Kv1.3 (Homo sapiens (Human), UniProt P22001)
Test: Kv1.3 potency evaluation, automated patch clamp electrophysiology (QPatch HT) in CHO-Kv1.3 cells
Assay type: cell-based
Conditions: whole-cell QPatch HT, % inhibition of charge, step to +30 mV, four concentrations, N≥3 cells, read-out: hKv1.3 IC50
From the text: Biological Assays Kv1.3 Potency Evaluation Electrophysiology Recordings
A proprietary Chinese hamster ovary cell line stably expressing exogenous human a-subunits of Kv1.3 (CHO-Kv1.3) channel, validated biophysically and pharmacologically in house, was used to assess the ability of test compounds to block Kv1.3 currents using automated patch clamp electrophysiology. The QPatch HT system (Sophion Bioscience A/S, Denmark) was used with the conventional whole-cell configuration. This system is an automated, chip-based planar patch clamp device allowing for up to 48 parallel independent experiments in one experimental assay run. Cells are added to each well and drawn by suction onto a small aperture to obtain a Gigaohm seal between the cell membrane and treated silicon surface, and whole-cell recordings initiated after access is achieved by suction and/or voltage pulses. The QPatch HT uses static perfusion, whereby a small volume of recording solution or drug is added to a reservoir on the chip and the solution perfuses across the cell through quartz-lined microfluidic channels; this solution is removed by capillary action when the next sample application is made.
CHO-Kv1.3 cells were prepared for experiments by dissociation from T175 cell culture flasks using trypsin-EDTA (0.05%), cells were kept in serum free media in the cell hotel on board the QPatch HT. These cells were sampled, washed and re-suspended in extracellular recording solution by the QPatch HT immediately before application to the recording well site on the chip. Experiments were performed using the following solutions; extracellular solution contained (in mM); 150 NaCl, 10 KCl, 1 MgCl2, 3 CaCl2), 10 Glucose and 10 HEPES (pH 7.4, NaOH) and intracellular solution contained (in mM); 20 KCl, 120 KF, 10 HEPES, 10 EGTA, 5 ATP (pH 7.2, KOH).
The potency (Inhibitory Concentration 50%, IC50) of synthesized compounds against Kv1.3 was determined from concentration-response relationships established by cumulatively applying four escalating concentrations of test compound to an individual cell and a minimum of N≥3 individual cells of data per compound were used to generate the IC50 value.
On achieving the whole-cell configuration; two additions of vehicle (0.1-0.3% DMSO v/v) were applied to each cell in two bolus additions with a two minute recording period between each addition (four minutes total recording time). Following the vehicle period, four concentrations of test sample were applied as two bolus additions per test concentration at two minute intervals, and the effects on current measured during the four minute recording period.
Currents were elicited using a single step voltage protocol. From a holding potential of −80 mV the cell is depolarised to +30 mV (500 ms) resulting in an outward current before finally repolarising the cell by returning to the holding potential. The command voltage was applied at a frequency of 0.067 Hz throughout the duration of the experiment. For each sweep of the voltage protocol membrane current and the passive properties of the individual cells were recorded by QPatch assay software (version 5.2). Cursors were placed to calculate the charge (integral of the current recorded during cursor interval) between 2-490 ms (0.4-99%) of the 500 ms step to +30 mV.
The % inhibition of charge for each test concentration application period was calculated as the reduction in mean charge at the end of each concentration test period relative to the charge value measured at the end of the control (i.e. vehicle) period. Sigmoidal concentration response curves (four parameter logistic curve) were fitted to the % inhibition rom which the IC50 was determined. Curve fits were constrained at 0 and 100%.

Sequence of human Kv1.3 (P22001 whole entry): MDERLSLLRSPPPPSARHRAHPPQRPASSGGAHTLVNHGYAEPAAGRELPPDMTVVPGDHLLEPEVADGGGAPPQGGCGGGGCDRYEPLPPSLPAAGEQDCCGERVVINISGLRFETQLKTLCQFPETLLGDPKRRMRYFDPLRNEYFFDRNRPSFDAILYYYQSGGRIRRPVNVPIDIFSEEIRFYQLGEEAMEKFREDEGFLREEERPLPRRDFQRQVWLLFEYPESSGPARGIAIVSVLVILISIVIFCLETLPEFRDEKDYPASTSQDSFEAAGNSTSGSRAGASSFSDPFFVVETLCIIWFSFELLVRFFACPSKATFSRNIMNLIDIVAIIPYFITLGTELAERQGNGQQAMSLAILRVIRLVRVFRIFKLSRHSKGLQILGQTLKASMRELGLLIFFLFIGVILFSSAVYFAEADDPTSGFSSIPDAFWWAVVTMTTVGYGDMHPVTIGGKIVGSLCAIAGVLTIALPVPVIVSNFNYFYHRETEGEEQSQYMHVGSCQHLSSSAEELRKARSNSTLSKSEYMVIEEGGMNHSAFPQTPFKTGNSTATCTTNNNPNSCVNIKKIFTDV

Molecule `CC1(C)N=C(C23CC(N(Cc4ccc(Cl)c(F)c4)S(=O)(=O)c4ccccc4)(C2)C3)N[C@H]1C(=O)NCCC(F)F` (mixture of isomers) [Example 79] has an IC50 of 60 nM.

In the case of `CCCCCS(=O)(=O)N(Cc1ccc(Cl)cc1)C12CC(C3=NC(C)(C)[C@H](C(=O)NCCC(F)(F)F)N3)(C1)C2` (mixture of isomers) [Example 80], the IC50 is reported as 61 nM.

Molecule `CC1(C)N=C(C23CC(N(Cc4ccc(Cl)c(F)c4)S(=O)(=O)c4ccccc4)(C2)C3)N[C@H]1C(=O)N1CC2CC2C1` (mixture of isomers) [Example 81] has an IC50 of 61 nM.

`CC1(C)N=C(C23CC(N(Cc4ccc(Cl)c(F)c4)S(=O)(=O)c4ccccc4)(C2)C3)N[C@H]1C(=O)N1CC2CC(F)(F)CC2C1` (mixture of isomers) [Example 82] was tested, and the IC50 was 61 nM.

In the case of `CN(C[C@H]1CC1(F)F)C(=O)[C@@H]1NC(C23CC(N(Cc4ccc(Cl)c(F)c4)S(=O)(=O)c4ccccc4)(C2)C3)=NC1(C)C` (mixture of isomers) [Example 83], the IC50 is reported as 61 nM.

`CC1(C)N=C(C23CC(N(Cc4ccc(Cl)c(F)c4)S(=O)(=O)c4ccccc4)(C2)C3)N[C@H]1C(=O)NC1CC(C(F)F)C1` (mixture of isomers) [Example 84] gave an IC50 of 61 nM.

Molecule `C[C@H]1CCN(C(=O)[C@@H]2NC(C34CC(N(Cc5ccc(Cl)c(F)c5)S(=O)(=O)c5ccccc5)(C3)C4)=NC2(C)C)C1` (mixture of isomers) [Example 85] has an IC50 of 62 nM.

In the case of `CC1(C)N=C(C23CC(N(Cc4ccc(Cl)c(Cl)c4)S(=O)(=O)c4ccccc4)(C2)C3)N[C@H]1C(=O)N1CCC(F)(F)CC1` (mixture of isomers) [Example 86], the IC50 is reported as 62 nM.

For `CC1(C)N=C(C23CC(N(Cc4ccc(Cl)c(F)c4)S(=O)(=O)c4ccccc4)(C2)C3)N[C@H]1C(=O)N1CC2(CCC2)C1` (mixture of isomers) [Example 87], the IC50 was 63 nM.

In the case of `CC1(C)N=C(C23CC(N(Cc4ccc(Cl)c(F)c4)S(=O)(=O)c4ccccc4)(C2)C3)N[C@H]1C(=O)N1CC2CCC(C1)C2(F)F` (mixture of isomers) [Example 88], the IC50 is reported as 63 nM.

With `CC1(C)N=C(C23CC(N(Cc4ccc(Cl)c(F)c4)S(=O)(=O)c4ccccc4)(C2)C3)N[C@H]1C(=O)NC1CC(C(F)F)C1` (mixture of isomers) [Example 89] the IC50 was 63 nM.

`CC1(C)N=C(C23CC(N(Cc4ccc(Cl)cc4)S(=O)(=O)c4ccn(C5CC5)n4)(C2)C3)N[C@H]1C(=O)NCCC(F)(F)F` (mixture of isomers) [Example 90] gave an IC50 of 64 nM.

In the case of `CC1(C)N=C(C23CC(N(Cc4ccc(Cl)c(F)c4)S(=O)(=O)c4ccccc4)(C2)C3)N[C@H]1C(=O)N1CCC(F)(F)C1` (mixture of isomers) [Example 91], the IC50 is reported as 64 nM.

For `CC1(C)N=C(C23CC(N(Cc4ccc(Cl)cc4)S(=O)(=O)CCCF)(C2)C3)N[C@H]1C(=O)NCCC(F)(F)F` (mixture of isomers) [Example 92], the IC50 was 64 nM.

Molecule `CC(F)(F)CCS(=O)(=O)N(Cc1ccc(Cl)cc1)C12CC(C3=NC(C)(C)[C@H](C(=O)NCCC(F)(F)F)N3)(C1)C2` (mixture of isomers) [Example 93] has an IC50 of 64 nM.

`CC1(C)N=C(C23CC(N(Cc4ccc(Cl)c(F)c4)S(=O)(=O)c4ccccc4)(C2)C3)N[C@H]1C(=O)N1CCC12CC(F)(F)C2` (mixture of isomers) [Example 94] was tested, and the IC50 was 64 nM.

`CN(CC(C)(C)F)C(=O)[C@@H]1NC(C23CC(N(Cc4ccc(Cl)c(F)c4)S(=O)(=O)c4ccccc4)(C2)C3)=NC1(C)C` (mixture of isomers) [Example 95] showed an IC50 of 64 nM.

`CCCS(=O)(=O)N(Cc1ccc(Cl)c(Cl)c1)C12CC(C3=NC(C)(C)[C@H](C(=O)N4CCC(F)(F)CC4)N3)(C1)C2` (mixture of isomers) [Example 96] was tested, and the IC50 was 65 nM.

`CC1(C)N=C(C23CC(N(Cc4ccc(Cl)c(F)c4)S(=O)(=O)c4ccccc4)(C2)C3)N[C@H]1C(=O)N1CCCC(F)(F)C1` (mixture of isomers) [Example 98] showed an IC50 of 66 nM.

For `CC1(C)N=C(C23CC(N(Cc4ccc(Cl)cc4)S(=O)(=O)c4ccccc4C#N)(C2)C3)N[C@H]1C(=O)NCCC(F)(F)F` (mixture of isomers) [Example 99], the IC50 was 67 nM.

`CCN(CCC(F)(F)F)C(=O)[C@@H]1NC(C23CC(N(Cc4ccc(Cl)c(F)c4)S(=O)(=O)c4ccccc4)(C2)C3)=NC1(C)C` (mixture of isomers) [Example 100] showed an IC50 of 67 nM.

`CC1(C)N=C(C23CC(N(Cc4ccc(Cl)cc4)S(=O)(=O)c4ccccc4)(C2)C3)N[C@H]1C(=O)NC1CC(C(F)F)C1` (mixture of isomers) [Example 101] gave an IC50 of 67 nM.

`CC1(C)N=C(C23CC(N(Cc4ccc(Cl)cc4)S(=O)(=O)CCCCF)(C2)C3)N[C@H]1C(=O)NCCC(F)(F)F` (mixture of isomers) [Example 102] gave an IC50 of 68 nM.

`CC1(C)N=C(C23CC(N(Cc4ccc(Cl)c(Cl)c4)S(=O)(=O)CCC(F)F)(C2)C3)N[C@H]1C(=O)NCC1CC1(F)F` (mixture of isomers) [Example 103] showed an IC50 of 68 nM.

`CC1(C)N=C(C23CC(N(Cc4ccc(Cl)c(F)c4)S(=O)(=O)c4ccccc4)(C2)C3)N[C@H]1C(=O)NC1CCC(F)(F)CC1` (mixture of isomers) [Example 104] showed an IC50 of 69 nM.

For `CC1(C)N=C(C23CC(N(Cc4ccc(Cl)cc4)S(=O)(=O)CC4CCC4)(C2)C3)N[C@H]1C(=O)NCCC(F)(F)F` (mixture of isomers) [Example 105], the IC50 was 69 nM.

`CC(C)(C)CNC(=O)[C@@H]1NC(C23CC(N(Cc4ccc(Cl)c(Cl)c4)S(=O)(=O)CCC(F)F)(C2)C3)=NC1(C)C` (mixture of isomers) [Example 106] gave an IC50 of 70 nM.

`CC1(C)N=C(C23CC(N(Cc4ccc(Cl)cc4)S(=O)(=O)c4ccccc4Cl)(C2)C3)N[C@H]1C(=O)NCCC(F)(F)F` (mixture of isomers) [Example 107] showed an IC50 of 71 nM.

With `CC1(C)N=C(C23CC(N(Cc4ccc(Cl)c(F)c4)S(=O)(=O)c4ccccc4)(C2)C3)N[C@H]1C(=O)NCCCC(F)(F)F` (mixture of isomers) [Example 108] the IC50 was 71 nM.

In the case of `CC1(C)N=C(C23CC(N(Cc4ccc(Cl)c(F)c4)S(=O)(=O)c4ccccc4)(C2)C3)N[C@H]1C(=O)N1CCC2(CCC2)C1` (mixture of isomers) [Example 109], the IC50 is reported as 71 nM.

For `CC1(C)N=C(C23CC(N(Cc4ccc(Cl)cc4)S(=O)(=O)c4cccnc4)(C2)C3)N[C@H]1C(=O)NCCC(F)(F)F` (mixture of isomers) [Example 110], the IC50 was 72 nM.

In the case of `CC(F)(F)CCS(=O)(=O)N(Cc1ccc(Cl)c(F)c1)C12CC(C3=NC(C)(C)[C@H](C(=O)NCCC(F)(F)F)N3)(C1)C2` (mixture of isomers) [Example 111], the IC50 is reported as 72 nM.

`CC1(C)N=C(C23CC(N(Cc4ccc(Cl)cc4)S(=O)(=O)c4ccccc4)(C2)C3)N[C@H]1C(=O)NCC(F)(F)C(F)(F)F` (mixture of isomers) [Example 112] was tested, and the IC50 was 72 nM.

`CN(CC1CC(F)(F)C1)C(=O)[C@@H]1NC(C23CC(N(Cc4ccc(Cl)c(Cl)c4)S(=O)(=O)c4ccccc4)(C2)C3)=NC1(C)C` (mixture of isomers) [Example 113] gave an IC50 of 72 nM.

Molecule `CC1(C)N=C(C23CC(N(Cc4ccc(Cl)c(F)c4)S(=O)(=O)c4ccccc4)(C2)C3)N[C@H]1C(=O)NC1CC(F)(F)C1` (mixture of isomers) [Example 114] has an IC50 of 73 nM.

In the case of `CC1(C)N=C(C23CC(N(Cc4ccc(Cl)c(Cl)c4)S(=O)(=O)c4ccccc4)(C2)C3)N[C@H]1C(=O)NC1CC(F)(F)C1` (mixture of isomers) [Example 115], the IC50 is reported as 73 nM.

`CC1(C)N=C(C23CC(N(Cc4ccc(Cl)c(Cl)c4)S(=O)(=O)c4ccccc4)(C2)C3)N[C@H]1C(=O)N1CCC2(C1)CC(F)(F)C2` (mixture of isomers) [Example 116] was tested, and the IC50 was 73 nM.

Molecule `CN(CCC(F)(F)F)C(=O)[C@@H]1NC(C23CC(N(Cc4ccc(Cl)c(Cl)c4)S(=O)(=O)CCC(C)(F)F)(C2)C3)=NC1(C)C` (mixture of isomers) [Example 117] has an IC50 of 73 nM.

`CC1(C)N=C(C23CC(N(Cc4ccc(Cl)c(F)c4)S(=O)(=O)c4ccccc4)(C2)C3)N[C@H]1C(=O)NC1(CC(F)(F)F)CC1` (mixture of isomers) [Example 118] showed an IC50 of 74 nM.
